Source: the NIST ThermoML archive (doi:10.1021/acs.jced.5b00654)
Where “and” joins values, the source holds several entries; their conditions need not be identical. Equal values may be shown once. Numbers after ± are expanded uncertainties.

Conditions: Fluid (supercritical or subcritical phases); for viscosity: Vibrating wire viscometry; for mass density: Buoyancy - hydrostatic balance with magnetic suspension - one sinker

CCCC [butane]
Conditions | mass density | viscosity
428.09 K, 5150.2 kPa | – | 0.04428 ± 0.0011 mPa·s
428.1 K, 796.14 kPa | 14.038 ± 0.036 kg/m3 | 0.01066 ± 0.00086 mPa·s
428.1 K, 796.19 kPa | 14.041 ± 0.036 kg/m3 | 0.01066 ± 0.00086 mPa·s
428.1 K, 904.9 kPa | 16.138 ± 0.04 kg/m3 | 0.01069 ± 0.00086 mPa·s
428.1 K, 1964.1 kPa | 40.163 ± 0.095 kg/m3 | 0.01117 ± 0.00086 mPa·s
428.1 K, 4625.9 kPa | 341.66 ± 0.98 kg/m3 | 0.04038 ± 0.0011 mPa·s
428.11 K, 131.61 kPa | 2.1741 ± 0.017 kg/m3 | 0.01052 ± 0.00086 mPa·s
428.11 K, 131.64 kPa | 2.1741 ± 0.017 kg/m3 | 0.01052 ± 0.00086 mPa·s
428.11 K, 904.86 kPa | 16.141 ± 0.04 kg/m3 | 0.01069 ± 0.00086 mPa·s
428.11 K, 1964.3 kPa | 40.167 ± 0.095 kg/m3 | 0.01118 ± 0.00086 mPa·s
428.11 K, 4626.6 kPa | 341.66 ± 0.98 kg/m3 | 0.04035 ± 0.0011 mPa·s
428.11 K, 4626.8 kPa | 341.65 ± 0.98 kg/m3 | 0.04033 ± 0.0011 mPa·s
428.12 K, 685.03 kPa | 11.939 ± 0.032 kg/m3 | 0.01063 ± 0.00086 mPa·s
428.12 K, 2306.2 kPa | 49.889 ± 0.12 kg/m3 and 49.887 ± 0.12 kg/m3 | 0.01144 ± 0.00086 mPa·s
428.12 K, 3964.9 kPa | 218.37 ± 5.8 kg/m3 | 0.02262 ± 0.00098 mPa·s
428.12 K, 3984.8 kPa | 246.5 ± 4.9 kg/m3 | 0.02576 ± 0.001 mPa·s
428.12 K, 3984.9 kPa | 246.49 ± 4.9 kg/m3 | 0.02577 ± 0.001 mPa·s
428.13 K, 480.91 kPa | 8.2126 ± 0.026 kg/m3 | 0.01059 ± 0.00086 mPa·s
428.13 K, 578.67 kPa | 9.9774 ± 0.029 kg/m3 | 0.01061 ± 0.00086 mPa·s
428.13 K, 684.54 kPa | 11.929 ± 0.032 kg/m3 | 0.01063 ± 0.00086 mPa·s
428.13 K, 2624.6 kPa | 60.353 ± 0.16 kg/m3 | 0.01177 ± 0.00087 mPa·s
428.13 K, 2624.7 kPa | 60.36 ± 0.16 kg/m3 | 0.01177 ± 0.00087 mPa·s
428.13 K, 2862.9 kPa | 69.476 ± 0.2 kg/m3 | 0.01209 ± 0.00087 mPa·s
428.13 K, 3655.2 kPa | 119.22 ± 0.59 kg/m3 | 0.01443 ± 0.00089 mPa·s
428.13 K, 3964.8 kPa | 218.33 ± 5.8 kg/m3 | 0.02263 ± 0.00098 mPa·s
428.13 K, 3990.1 kPa | 251.58 ± 5 kg/m3 and 251.63 ± 5 kg/m3 | 0.02637 ± 0.001 mPa·s and 0.02638 ± 0.001 mPa·s
428.13 K, 5948.9 kPa | 378 ± 0.56 kg/m3 | 0.04846 ± 0.0012 mPa·s
428.13 K, 5949.6 kPa | 378.01 ± 0.56 kg/m3 and 378.02 ± 0.56 kg/m3 | 0.04837 ± 0.0012 mPa·s and 0.04844 ± 0.0012 mPa·s
428.14 K, 480.81 kPa | 8.2112 ± 0.026 kg/m3 | 0.01059 ± 0.00086 mPa·s
428.14 K, 578.76 kPa | 9.9803 ± 0.029 kg/m3 | 0.01061 ± 0.00086 mPa·s
428.14 K, 1041.2 kPa | 18.856 ± 0.046 kg/m3 | 0.01073 ± 0.00086 mPa·s
428.14 K, 2862.8 kPa | 69.471 ± 0.2 kg/m3 | 0.01209 ± 0.00087 mPa·s
428.14 K, 3427.1 kPa | 99.322 ± 0.39 kg/m3 | 0.01338 ± 0.00088 mPa·s
428.14 K, 3655.7 kPa | 119.23 ± 0.59 kg/m3 | 0.01444 ± 0.00089 mPa·s
428.14 K, 4145.9 kPa | 304.6 ± 1.3 kg/m3 | 0.03374 ± 0.001 mPa·s
428.14 K, 4146.2 kPa | 304.61 ± 1.3 kg/m3 | 0.03373 ± 0.001 mPa·s
428.14 K, 30018 kPa | 498.2 ± 0.56 kg/m3 | 0.09505 ± 0.0015 mPa·s
428.14 K, 30022 kPa | 498.2 ± 0.56 kg/m3 | 0.09486 ± 0.0015 mPa·s
428.14 K, 30023 kPa | 498.21 ± 0.56 kg/m3 | 0.09498 ± 0.0015 mPa·s
428.15 K, 1040.7 kPa | 18.847 ± 0.045 kg/m3 | 0.01073 ± 0.00086 mPa·s
428.15 K, 3263.7 kPa | 88.854 ± 0.31 kg/m3 | 0.01288 ± 0.00087 mPa·s
428.15 K, 3427.2 kPa | 99.316 ± 0.39 kg/m3 | 0.01337 ± 0.00088 mPa·s
428.15 K, 4067.3 kPa | 289 ± 2.6 kg/m3 | 0.03129 ± 0.0011 mPa·s
428.15 K, 4067.5 kPa | 288.98 ± 2.6 kg/m3 | 0.03132 ± 0.0011 mPa·s
428.15 K, 12773 kPa | 440.28 ± 0.51 kg/m3 | 0.06754 ± 0.0013 mPa·s
428.15 K, 17075 kPa | 460.12 ± 0.52 kg/m3 | 0.07551 ± 0.0014 mPa·s
428.15 K, 17077 kPa | 460.12 ± 0.52 kg/m3 | 0.07561 ± 0.0014 mPa·s
428.16 K, 62.1 kPa | 1.0176 ± 0.015 kg/m3 | 0.01051 ± 0.00086 mPa·s
428.16 K, 3263.8 kPa | 88.856 ± 0.31 kg/m3 | 0.01289 ± 0.00087 mPa·s
428.16 K, 7467.1 kPa | 399.68 ± 0.51 kg/m3 | 0.05418 ± 0.0012 mPa·s
428.16 K, 7467.5 kPa | 399.69 ± 0.51 kg/m3 | 0.05413 ± 0.0012 mPa·s
428.16 K, 9661.1 kPa | 420.21 ± 0.5 kg/m3 | 0.06045 ± 0.0012 mPa·s
428.16 K, 9662.3 kPa | 420.22 ± 0.5 kg/m3 | 0.06047 ± 0.0012 mPa·s
428.16 K, 12732 kPa | 440.05 ± 0.51 kg/m3 | 0.06741 ± 0.0013 mPa·s
428.16 K, 12735 kPa | 440.06 ± 0.51 kg/m3 | 0.06744 ± 0.0013 mPa·s
428.17 K, 62.1 kPa | 1.0183 ± 0.015 kg/m3 | 0.01051 ± 0.00086 mPa·s
428.17 K, 3976.1 kPa | 230.45 ± 5.9 kg/m3 | 0.02394 ± 0.001 mPa·s
428.17 K, 7466.2 kPa | 399.67 ± 0.51 kg/m3 | 0.05411 ± 0.0012 mPa·s
428.18 K, 62.1 kPa | 1.0176 ± 0.015 kg/m3 | 0.01051 ± 0.00086 mPa·s
428.18 K, 1098.5 kPa | 20.025 ± 0.048 kg/m3 | 0.01075 ± 0.00086 mPa·s
428.18 K, 1099.1 kPa | 20.038 ± 0.048 kg/m3 | 0.01075 ± 0.00086 mPa·s
428.18 K, 3790.9 kPa | 137.62 ± 2.4 kg/m3 | 0.01558 ± 0.00091 mPa·s
428.18 K, 3953.3 kPa | 199.18 ± 5.3 kg/m3 | 0.02063 ± 0.001 mPa·s
428.18 K, 3976.3 kPa | 230.48 ± 5.9 kg/m3 | 0.02395 ± 0.001 mPa·s
428.18 K, 4312 kPa | 322.22 ± 1.1 kg/m3 | 0.03673 ± 0.0011 mPa·s
428.18 K, 4312.4 kPa | 322.24 ± 1.1 kg/m3 and 322.25 ± 1.1 kg/m3 | 0.03673 ± 0.0011 mPa·s and 0.03668 ± 0.0011 mPa·s
428.19 K, 3883.8 kPa | 159.22 ± 2.4 kg/m3 | 0.01712 ± 0.00092 mPa·s
428.19 K, 3884.1 kPa | 159.21 ± 2.4 kg/m3 | 0.01712 ± 0.00093 mPa·s
428.19 K, 3938.7 kPa | 185.24 ± 3.7 kg/m3 | 0.01931 ± 0.00095 mPa·s
428.19 K, 3939.2 kPa | 185.3 ± 3.7 kg/m3 | 0.01933 ± 0.00095 mPa·s
428.19 K, 3953.5 kPa | 199.12 ± 5.3 kg/m3 | 0.02064 ± 0.001 mPa·s
